Laboratory results published in patent US9839632B2, “Methods and compositions using 4-amino-2-(2,6-dioxo-piperidine-3-yl)-isoindoline-1,3-dione for treatment and management of central nervous system cancers” (CELGENE CORPORATION, priority 2013, dated 2017).

System: Raji B lymphoma cells
Test: Orthotopic murine CNS lymphoma model, Raji (bioluminescence tumor growth, survival)
Assay type: in vivo, athymic mice
Settings: for median survival: Raji model; for in vivo tumor growth (luminescence signal) vs control: P<0.05, n=8
Protocol: Animal and housing: Female athymic mice (8-10 weeks old and weighing 20-25 g at the beginning of the study) were purchased from Harlan laboratories. They were housed in a temperature-controlled sterilized room (23±2° C.) with a 12-h light/dark cycle and free access to food and water throughout the study. Animal use was approved by Mayo Foundation Institutional Animal Use and Care Committee and was in accordance with NIH Guide for the Care and Use of Laboratory Animals.
Orthotopic murine CNS lymphoma models: Two murine CNS lymphoma models were created by intracerebral injection of 2.5×10^4 luciferase-transfected Raji or 1×10^5 luciferase-transfected OCI-LY10 B lymphoma cells in athymic mice under anesthesia using a stereotactic platform. Eight-week-old athymic mice underwent minimum 7-day acclimation/quarantine prior to surgery. Surgery was performed in a laminar flow hood under sterile conditions. Tylenol 300 mg/kg PO was given for analgesia 24 hours before the surgery continuing 48 hours postoperatively. Anesthesia was achieved by inhalation of 1-2% isoflurane. After the mouse became well anesthetized, it was placed in the Kopf stereotactic instrument. A small amount of BNP antibiotic cream (a mixture of Bacitracin, Neomycin and Polymyxin) was smeared on its eyes to prevent infection and corneal damage during surgery. A strip of soft fabric was placed over the mouse's body and tail to prevent excessive heat loss during surgery. The scalp area was cleaned with a 2% solution of Betadine and dried with cotton tipped applicator. A midline sagittal incision was made in the scalp. A small burr hole was drilled in the left skull with a surgical drill (Kopf) or a Dremel drill according to the coordinates (AP: 0.5 mm, LM: 2.5 mm) as determined by reference to the mouse brain atlas by Franklin and Paxinos. Paxinos, 2001. The dura mater was surgically exposed, and a 10 μl-Hamilton syringe with a 26S-gauge beveled needle was lowered into the left cerebral hemisphere up to the depth of 3 mm and 5 μl of tumor cells was slowly infused (0.5 μl/min). The needle was left in place for 5 minutes to prevent reflux and then was slowly removed. The skin was closed with wound clips. The mice recovered from anesthesia and surgery in a warm environment and were not returned to their cages until motor activity returned. Cages were placed on top of a heating pad to minimize the loss of body heat during the recovery. The mice were monitored postoperatively at least twice a day for 5 days or until recovery was complete.
Bioluminescence imaging of mouse: After intracerebral injection of lymphoma cells, all the mice were subjected to bioluminesence imaging (“BLI”) twice a week starting at day-4 post-intracerebral injection to monitor the real-time in vivo tumor growth. BLI was conducted using a Xenogen Lumina optical imaging system (Caliper Life Sciences, Hopkinton, Mass.). Mice were anesthetized with isofluorane before intraperitoneal injections of luciferin at a dose of 150 mg/kg, providing a saturating substrate concentration for luciferase enzyme. Peak luminescent signals were recorded 10 minutes after luciferin injection. Regions of interest encompassing the intracranial area of signal were defined using Living Image software (Xenogen), and the total photons/s/steradian/cm^2 was recorded.
In vivo preclinical evaluation of 4-amino-2-(2,6-dioxo-piperidine-3-yl)-isoindoline-1,3-dione in murine CNS lymphoma models: Mice were imaged 4 days after intracerebral injection and were distributed among different treatment groups with equivalent average BLI signal. Real time tumor growth was monitored by BLI. Tumor growth and survival data were analyzed for statistical difference between the groups. Mice were assigned to four experimental groups and one vehicle control group in Raji model. Mice in experimental groups received 4-amino-2-(2,6-dioxo-piperidine-3-yl)-isoindoline-1,3-dione 0.3 mg/kg, 3 mg/kg, 10 mg/kg, or 30 mg/kg by oral gavage daily for 28 days.

## Nc1cccc2c1C(=O)N(C1CCC(=O)NC1=O)C2=O (centres unmarked) [Pomalidomide, 4-amino-2-(2,6-dioxo-piperidine-3-yl)-isoindoline-1,3-dione]
3, 10 and 30 mg/kg treatment groups, murine CNS lymphoma model not specified
  body weight vs control group: able to maintain their body weight better than those in control group
0.3 mg/kg oral gavage daily for 28 days
  median survival: 24 days
3 mg/kg oral gavage daily for 28 days
  median survival: 28 days
10 mg/kg oral gavage daily for 28 days
  median survival: 27 days
30 mg/kg oral gavage daily for 28 days
  median survival: 31 days
Raji model, 3, 10 and 30 mg/kg groups
  in vivo tumor growth (luminescence signal) vs control: significantly slower
Raji model, 3, 10 and 30 mg/kg groups, listed as 4-amino-2-(2,6-dioxo-piperidine-3-yl)-isoindoline-1,3-dione
  in vivo tumor growth (luminescence signal) vs control: reduction of tumor growth
Raji model, 3, 10 and 30 mg/kg groups, p<0.05, n=8
  survival, Kaplan-Meier analysis vs control: prolongation of survival
